Test results published in PubChem BioAssay (NCI).
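1) Cells in 96-well plates. 2) Compound, 48 h, 5 concentrations. 3) Linear interpolation between surrounding doses. 4) Unreached endpoint = highest concentration. Abbreviation: GI50, concentration required for 50% inhibition of growth. TGI denotes the concentration required for complete inhibition of growth.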

What was measured:
Assay in all cases: NCI anticancer screen, dose series, 48 h
786-0 renal = tested on: 786-0 renal
A498 renal = tested on: A498 renal
A549 NSCLC = tested on: A549 NSCLC
ACHN renal = tested on: ACHN renal
BT-549 breast = tested on: BT-549 breast
CAKI-1 renal = tested on: CAKI-1 renal
COLO 205 colon = tested on: COLO 205 colon
DU-145 prostate = tested on: DU-145 prostate
EKVX NSCLC = tested on: EKVX NSCLC
HCC-2998 colon = tested on: HCC-2998 colon
HCT-116 colon = tested on: HCT-116 colon
HCT-15 colon = tested on: HCT-15 colon
HL-60(TB) leukemia = tested on: HL-60(TB) leukemia
HOP-62 NSCLC = tested on: HOP-62 NSCLC
HOP-92 NSCLC = tested on: HOP-92 NSCLC
HT29 colon = tested on: HT29 colon
IGROV1 ovarian = tested on: IGROV1 ovarian
KM12 colon = tested on: KM12 colon
LOX IMVI melanoma = tested on: LOX IMVI melanoma
M14 melanoma = tested on: M14 melanoma
MCF7 breast = tested on: MCF7 breast
MDA-MB-231 breast = tested on: MDA-MB-231 breast
MDA-MB-435 = tested on: MDA-MB-435
MOLT-4 leukemia = tested on: MOLT-4 leukemia
NCI-H226 lung = tested on: NCI-H226 lung
NCI-H23 lung = tested on: NCI-H23 lung
NCI-H460 lung = tested on: NCI-H460 lung
NCI/ADR-RES ovarian = tested on: NCI/ADR-RES ovarian
OVCAR-3 ovarian = tested on: OVCAR-3 ovarian
OVCAR-4 ovarian = tested on: OVCAR-4 ovarian
OVCAR-5 ovarian = tested on: OVCAR-5 ovarian
OVCAR-8 ovarian = tested on: OVCAR-8 ovarian
RXF 393 renal = tested on: RXF 393 renal
SF-268 CNS = tested on: SF-268 CNS
SF-295 CNS = tested on: SF-295 CNS
SF-539 CNS = tested on: SF-539 CNS
SK-MEL-2 melanoma = tested on: SK-MEL-2 melanoma
SK-MEL-28 melanoma = tested on: SK-MEL-28 melanoma
SK-MEL-5 melanoma = tested on: SK-MEL-5 melanoma
SK-OV-3 ovarian = tested on: SK-OV-3 ovarian
SN12C renal = tested on: SN12C renal
SNB-19 CNS = tested on: SNB-19 CNS
SNB-75 CNS = tested on: SNB-75 CNS
SW-620 colon = tested on: SW-620 colon
T-47D breast = tested on: T-47D breast
TK-10 renal = tested on: TK-10 renal
U251 CNS = tested on: U251 CNS
UACC-257 melanoma = tested on: UACC-257 melanoma
UO-31 renal = tested on: UO-31 renal
MALME-3M melanoma = tested on: MALME-3M melanoma
NCI-H522 lung = tested on: NCI-H522 lung
RPMI-8226 leukemia = tested on: RPMI-8226 leukemia
UACC-62 melanoma = tested on: UACC-62 melanoma

## NC(=O)C(=CN1C(=O)CC(=O)NC1=S)C(N)=O
786-0 renal
  TGI: > 100 µM
A498 renal
  TGI: > 100 µM
A549 NSCLC
  TGI: > 100 µM
ACHN renal
  TGI: > 100 µM
BT-549 breast
  TGI: > 100 µM
CAKI-1 renal
  TGI: > 100 µM
COLO 205 colon
  TGI: > 100 µM
DU-145 prostate
  TGI: > 100 µM
EKVX NSCLC
  TGI: > 100 µM
HCC-2998 colon
  TGI: > 100 µM
HCT-116 colon
  TGI: > 100 µM
HCT-15 colon
  TGI: > 100 µM
HL-60(TB) leukemia
  TGI: > 100 µM
HOP-62 NSCLC
  TGI: > 100 µM
HOP-92 NSCLC
  TGI: > 100 µM
HT29 colon
  TGI: > 100 µM
IGROV1 ovarian
  TGI: > 100 µM
KM12 colon
  TGI: > 100 µM
LOX IMVI melanoma
  TGI: > 100 µM
M14 melanoma
  TGI: > 100 µM
MCF7 breast
  TGI: > 100 µM
MDA-MB-231 breast
  TGI: > 100 µM
MDA-MB-435
  TGI: > 100 µM
MOLT-4 leukemia
  TGI: > 100 µM
NCI-H226 lung
  TGI: > 100 µM
NCI-H23 lung
  TGI: > 100 µM
NCI-H460 lung
  TGI: > 100 µM
NCI/ADR-RES ovarian
  TGI: > 100 µM
OVCAR-3 ovarian
  TGI: > 100 µM
OVCAR-4 ovarian
  TGI: > 100 µM
OVCAR-5 ovarian
  TGI: > 100 µM
OVCAR-8 ovarian
  TGI: > 100 µM
RXF 393 renal
  TGI: > 100 µM
SF-268 CNS
  TGI: > 100 µM
SF-295 CNS
  TGI: > 100 µM
SF-539 CNS
  TGI: > 100 µM
SK-MEL-2 melanoma
  TGI: > 100 µM
SK-MEL-28 melanoma
  TGI: > 100 µM
SK-MEL-5 melanoma
  TGI: > 100 µM
SK-OV-3 ovarian
  TGI: > 100 µM
SN12C renal
  TGI: > 100 µM
SNB-19 CNS
  TGI: > 100 µM
SNB-75 CNS
  TGI: > 100 µM
SW-620 colon
  TGI: > 100 µM
T-47D breast
  TGI: > 100 µM
TK-10 renal
  TGI: > 100 µM
U251 CNS
  TGI: > 100 µM
UACC-257 melanoma
  TGI: > 100 µM
UO-31 renal
  TGI: > 100 µM

## Cc1ccc(S(=O)(=O)NC(CCC(=O)Nc2ccccc2)C(=O)Nc2ccccc2)cc1 (configuration not stated)
786-0 renal
  GI50: 0.491 µM
  TGI: 2.04 µM
A498 renal
  GI50: 0.142 µM
  TGI: 0.897 µM
A549 NSCLC
  GI50: 0.319 µM
  TGI: 1.76 µM
EKVX NSCLC
  GI50: 0.401 µM
  TGI: 2.3 µM
HCT-116 colon
  GI50: 0.273 µM
  TGI: 1.31 µM
HL-60(TB) leukemia
  GI50: 0.55 µM
  TGI: 3.08 µM
HOP-92 NSCLC
  GI50: 0.157 µM
  TGI: 0.544 µM
M14 melanoma
  GI50: 0.404 µM
  TGI: 3.62 µM
MALME-3M melanoma
  GI50: 0.745 µM
  TGI: 2.51 µM
MDA-MB-435
  GI50: 0.437 µM
  TGI: 2.06 µM
MOLT-4 leukemia
  GI50: 0.375 µM
  TGI: > 100 µM
NCI-H226 lung
  GI50: 0.447 µM
  TGI: 2.59 µM
NCI-H522 lung
  GI50: 0.276 µM
  TGI: 1.14 µM
NCI/ADR-RES ovarian
  GI50: 0.475 µM
  TGI: 2.19 µM
OVCAR-3 ovarian
  GI50: 0.419 µM
  TGI: 1.35 µM
OVCAR-8 ovarian
  GI50: 0.5 µM
  TGI: 2.57 µM
RPMI-8226 leukemia
  GI50: 0.309 µM
  TGI: 1.58 µM
RXF 393 renal
  GI50: 0.662 µM
  TGI: 2.25 µM
SF-295 CNS
  GI50: 0.362 µM
  TGI: 1.69 µM
SF-539 CNS
  GI50: 0.283 µM
  TGI: 0.89 µM
SK-MEL-2 melanoma
  GI50: 0.427 µM
  TGI: 1.47 µM
SK-MEL-5 melanoma
  GI50: 0.226 µM
  TGI: 0.656 µM
SK-OV-3 ovarian
  GI50: 0.47 µM
  TGI: 2.39 µM
SW-620 colon
  GI50: 0.719 µM
  TGI: 2.93 µM
T-47D breast
  GI50: 0.206 µM
  TGI: 0.934 µM
U251 CNS
  GI50: 0.326 µM
  TGI: 1.49 µM
UACC-257 melanoma
  GI50: 0.464 µM
  TGI: 2.36 µM
UACC-62 melanoma
  GI50: 0.172 µM
  TGI: 1.12 µM
UO-31 renal
  GI50: 0.274 µM
  TGI: 3.39 µM
